Results taken from patent US20160262390A1, “FIELD APPLICATION OF SUGARS TO INCREASE CROP YIELD” (Minn-Dak Farmers Cooperative, priority 2015, published 2016).

Experiments:
sugarbeets = assay: Pre-planting sugar application on sugarbeets, Hickson; format: in vivo, sugarbeet; settings: for Recoverable Sugar Yield / Recoverable Sugar Yield Increase Compared to Check Average / Sugarbeet Yield: ND
Description: (§1) The field trials were conducted simultaneously in two different planting locations for each of the crops. One location was near the community of Foxhome in Wilkin County, Minnesota (hereafter referred to as “Foxhome”) while the second location was near the community of Hickson in Cass County, North Dakota (hereafter referred to as “Hickson”). The Foxhome and Hickson locations are on opposite sides of the Red River along the border of Minnesota and North Dakota and separated by a distance exceeding 40 miles. Generally, the Foxhome location has heavier clay loam soil conditions while Hickson has sandy loam soil conditions.
(§2) At each of the Foxhome and Hickson locations, a total of thirty two (32) treatments were conducted for each crop (sugarbeets, soybeans, corn, wheat). Each treatment was replicated four times arranged in a Randomized Complete Block (RCB) Design in the same field. Each replication consisted of a plot measuring twenty five (25) feet in length and eleven (11) feet in width. In selecting the particular seed types for evaluation, popular commercial varieties to the region were utilized. For the row crops (sugarbeets, soybeans, corn) each replication included a width of six (6) rows with twenty two (22) inch row spacing and having a row length of twenty five (25) feet. The wheat was planted in accordance with standard commercial practices. To reduce/eliminate any treatment impacts between adjacent plots for the crops, only the four (4) interior rows of each plot were treated and evaluated for row crops, while for wheat, only the interior 7.33 feet of each plot were treated and evaluated. With the exception of the treatment program applied to the individual plots, which will be discussed below, conventional commercial growing practices for each planting location were otherwise followed during the field trials. While the individual plots at the same location, Hickson or Foxhome, experienced essentially the same growing conditions throughout the season, there were various differences associated with localized precipitation, general growing conditions, soil classification and the like, which contributed to performance differences between the Hickson and Foxhome locations.
(§3) The treatment regimen at each location for each of the tested crops included two (2) untreated treatments (Treatments 31 and 32) in which no sugar was applied and constitute the control elements. […] Six (6) treatments (Treatments 13-18) included the liquid application of high fructose corn syrup (hereafter “HFCS”) at varying rates. Six treatments (Treatments 19-24) included the liquid application of dextrose (hereafter “LIQDEX”) at varying rates. Six (6) treatments (Treatments 25-30) included the application of powdered cellulose (hereafter “POWCEL”) at varying rates. For the sugar applied in a solid form, granulated or powdered, field application was conducted via conventional broadcast spreading. For the sugar applied in a liquid form, a liquid concentrate was mixed and diluted with water in a tank and a conventional sprayer was configured such that the liquid was sprayed so as to have the same sugar equivalent (measured in pounds/per acre) as the sugar in solid form. Regardless of whether the sugar was applied as a solid or liquid, the sugar was applied directly onto the soil before spring tillage, lightly worked into the ground and followed by planting of the crop seed in the treated ground. A summary of application rates for each plot treatments are contained in Table 7 below and were used consistently with each of the crops (sugarbeets, soybeans, corn, wheat).
To test the impact of pre-planting application rates and sugar source on sugarbeets, identical field trials using Crystal® brand ACH 260 sugarbeet seed were conducted at the Foxhome and Hickson locations. Planting of the sugarbeet seed and harvest of the sugarbeets were conducted on as close to the same dates as practical so as to have essentially the same length growing season. […]

soybeans = assay: Pre-planting sugar application on soybeans, Foxhome; format: in vivo, soybean; settings: for Yield / Yield Increase Compared to Check: MN
Description: as §1, §2, §3
(§4) To test the impact of pre-planting application rates and sugar source on soybeans, identical field trials using Syngenta brand soybean seed were conducted at the Foxhome and Hickson locations. Planting of the soybean seed and harvest of the soybeans were conducted on approximately the same dates so as to have essentially the same growing season. […]

corn = assay: Pre-planting sugar application on corn, Foxhome; format: in vivo; settings: for Yield / Yield Increase Compared to Check Average: MN
Description: as §1, §2, §3
as §4, with “corn,” for “soybeans,”, “Peterson Farms” for “Syngenta”, “corn” for “soybean”, “corn” for “soybeans”, “on” for “on approximately”

wheat = assay: Pre-planting sugar application on wheat, Foxhome; format: in vivo; settings: for Yield / Yield Increase Compared to Check Average: MN
Description: as §1, §2, §3
as §4, with “wheat,” for “soybeans,”, “Westbred Mayville wheat” for “Syngenta brand soybean”, “wheat” for “soybean”, “wheat” for “soybeans”, “on” for “on approximately”

[1] = tested on: microflora that are present in the soil; assay: Solvita Soil CO2-Burst test of pre-emergent soil samples, soybean trial in Hickson
Description: In an attempt to quantify this boost, soil samples were taken during some of the previously discussed trials. These samples were tested using a standard Solvita Soil CO2-Burst Test Kit to generate measurements associated with CO2 respiration which can be used as an indicator of active soil carbon, soil microbial biomass and the potential for nutrient release beneficial to crop production. Generally, the higher the measured levels of CO2, the more advantageous the soil is for crop production.
The results of the CO2-Burst Testing are summarized in Table 17 below (using the replication designations from Table 7): […]

[2] = six rates (25-250 pounds/Acre) per sugar, thirty in all

Question: What does the source list for `OC[C@H]1O[C@@](CO)(O[C@H]2O[C@H](CO)[C@@H](O)[C@H](O)[C@H]2O)[C@@H](O)[C@@H]1O` [LIQSUC, sucrose]?
Answer: Recoverable Sugar Yield (sugarbeets; pre-planting 25 pounds/Acre): 9363 Pounds/Acre; Recoverable Sugar Yield Increase Compared to Check Average (sugarbeets; pre-planting 25 pounds/Acre): −4.55%; Sugarbeet Yield (sugarbeets; pre-planting 25 pounds/Acre): 28.83 Tons/Acre; Recoverable Sugar Yield (sugarbeets; pre-planting 50 pounds/Acre): 10217 Pounds/Acre; Recoverable Sugar Yield Increase Compared to Check Average (sugarbeets; pre-planting 50 pounds/Acre): 4.16%; Sugarbeet Yield (sugarbeets; pre-planting 50 pounds/Acre): 32.05 Tons/Acre; Recoverable Sugar Yield (sugarbeets; pre-planting 100 pounds/Acre): 9216 Pounds/Acre; Recoverable Sugar Yield Increase Compared to Check Average (sugarbeets; pre-planting 100 pounds/Acre): −6.05%; Sugarbeet Yield (sugarbeets; pre-planting 100 pounds/Acre): 28.83 Tons/Acre; Recoverable Sugar Yield (sugarbeets; pre-planting 150 pounds/Acre): 9089 Pounds/Acre; Recoverable Sugar Yield Increase Compared to Check Average (sugarbeets; pre-planting 150 pounds/Acre): −7.34%; Sugarbeet Yield (sugarbeets; pre-planting 150 pounds/Acre): 31.95 Tons/Acre; Recoverable Sugar Yield (sugarbeets; pre-planting 200 pounds/Acre): 9998 Pounds/Acre; Recoverable Sugar Yield Increase Compared to Check Average (sugarbeets; pre-planting 200 pounds/Acre): 1.93%; Sugarbeet Yield (sugarbeets; pre-planting 200 pounds/Acre): 32.35 Tons/Acre; Recoverable Sugar Yield (sugarbeets; pre-planting 250 pounds/Acre): 9627 Pounds/Acre; Recoverable Sugar Yield Increase Compared to Check Average (sugarbeets; pre-planting 250 pounds/Acre): −1.86%; Sugarbeet Yield (sugarbeets; pre-planting 250 pounds/Acre): 32.29 Tons/Acre; number of treatments showing negative yield benefits compared to check average (sugarbeets; six rates per sugar): four of the six; Yield (soybeans; pre-planting 25 pounds/Acre): 67.82 Bushels/Acre; Yield Increase Compared to Check (soybeans; pre-planting 25 pounds/Acre): −1.05%; Yield (soybeans; pre-planting 50 pounds/Acre): 72.08 Bushels/Acre; Yield Increase Compared to Check (soybeans; pre-planting 50 pounds/Acre): 5.16%; Yield (soybeans; pre-planting 100 pounds/Acre): 71.28 Bushels/Acre; Yield Increase Compared to Check (soybeans; pre-planting 100 pounds/Acre): 4.00%; Yield (soybeans; pre-planting 150 pounds/Acre): 70.57 Bushels/Acre; Yield Increase Compared to Check (soybeans; pre-planting 150 pounds/Acre): 2.96%; Yield (soybeans; pre-planting 200 pounds/Acre): 68.33 Bushels/Acre; Yield Increase Compared to Check (soybeans; pre-planting 200 pounds/Acre): −0.31%; Yield (soybeans; pre-planting 250 pounds/Acre): 72.14 Bushels/Acre; Yield Increase Compared to Check (soybeans; pre-planting 250 pounds/Acre): 5.25%; number of treatments showing yield improvement compared to check treatment 31 (soybeans; [2]): four of the six; Yield (corn; pre-planting 25 pounds/Acre): 264.82 Bushels/Acre; Yield Increase Compared to Check Average (corn; pre-planting 25 pounds/Acre): −0.35%; Yield (corn; pre-planting 50 pounds/Acre): 274.43 Bushels/Acre; Yield Increase Compared to Check Average (corn; pre-planting 50 pounds/Acre): 3.26%; Yield (corn; pre-planting 100 pounds/Acre): 264.79 Bushels/Acre; Yield Increase Compared to Check Average (corn; pre-planting 100 pounds/Acre): −0.36%; Yield (corn; pre-planting 150 pounds/Acre): 270.66 Bushels/Acre; Yield Increase Compared to Check Average (corn; pre-planting 150 pounds/Acre): 1.84%; Yield (corn; pre-planting 200 pounds/Acre): 271.85 Bushels/Acre; Yield Increase Compared to Check Average (corn; pre-planting 200 pounds/Acre): 2.29%; Yield (corn; pre-planting 250 pounds/Acre): 263.78 Bushels/Acre; Yield Increase Compared to Check Average (corn; pre-planting 250 pounds/Acre): −0.75%; number of treatments showing yield improvement compared to check average (corn; [2]): three of the six; Yield (wheat; pre-planting 25 pounds/Acre): 57.25 Bushels/Acre; Yield Increase Compared to Check Average (wheat; pre-planting 25 pounds/Acre): −11.65%; Yield (wheat; pre-planting 50 pounds/Acre): 68.06 Bushels/Acre; Yield Increase Compared to Check Average (wheat; pre-planting 50 pounds/Acre): 5.03%; Yield (wheat; pre-planting 100 pounds/Acre): 67.59 Bushels/Acre; Yield Increase Compared to Check Average (wheat; pre-planting 100 pounds/Acre): 4.31%; Yield (wheat; pre-planting 150 pounds/Acre): 65.84 Bushels/Acre; Yield Increase Compared to Check Average (wheat; pre-planting 150 pounds/Acre): 1.60%; Yield (wheat; pre-planting 200 pounds/Acre): 62.49 Bushels/Acre; Yield Increase Compared to Check Average (wheat; pre-planting 200 pounds/Acre): −3.56%; Yield (wheat; pre-planting 250 pounds/Acre): 63.20 Bushels/Acre; Yield Increase Compared to Check Average (wheat; pre-planting 250 pounds/Acre): −2.47%; number of treatments showing yield improvement compared to check average (wheat; [2]): three of the six; CO2 Burst ppm ([1]; sugar amount 50 pounds/acre): 49 ppm; CO2 Increase as Compared to Check Average ([1]; sugar amount 50 pounds/acre): 7.69%; CO2 Burst ppm ([1]; sugar amount 150 pounds/acre): 45 ppm; CO2 Increase as Compared to Check Average ([1]; sugar amount 150 pounds/acre): −1.10%; CO2 Burst ppm ([1]; sugar amount 250 pounds/acre): 55 ppm; CO2 Increase as Compared to Check Average ([1]; sugar amount 250 pounds/acre): 20.88%
